{"source": "ChEMBL document CHEMBL4354788", "about": "“Synthetic small-molecule RNA ligands: future prospects as therapeutic agents” (Medchemcomm, 2019)", "key": {"[1]": {"assay": "Binding affinity to r(CUG) repeat RNA (unknown origin)"}, "[2]": {"target": "Rev responsive element (RRE) RNA", "assay": "Binding affinity to HIV1 RRE RNA assessed as reduction in binding of tritiated RRE RNA to biotinylated Rev protein by high-throughput scintillation proximity assay", "assay_type": "nucleic-acid assay, Human immunodeficiency virus 1"}, "[3]": {"tested_on": "Human immunodeficiency virus 1", "assay": "Antiviral activity against HIV1 assessed as reduction in viral replication by cell based assay", "assay_type": "functional, organism-based"}, "[4]": {"assay": "Binding affinity to r(CUG) repeat RNA (unknown origin) assessed as reduction in r(CUG)-MBNL1 interaction"}, "[5]": {"assay": "Binding affinity to r(CGG)12 repeat RNA (unknown origin) assessed as reduction in r(CGG)12-[…] interaction"}, "[6]": {"tested_on": "Human immunodeficiency virus 1", "assay": "Antiviral activity against HIV1 infected in human CEM-SS cells assessed as inhibition of virus proliferation", "assay_type": "functional, organism-based", "details": "Human immunodeficiency virus 1, CEM-SS"}, "[7]": {"assay": "Binding affinity to HIV1 TAR RNA", "parameters": "species or system Human immunodeficiency virus 1"}, "[8]": {"assay": "Binding affinity to Stem loop 3 RNA in HIV1 infected in HEK293T cells assessed as reduction in SL3-Gag interaction by measuring inhibition of RNA incorporation into virions", "assay_type": "cell-based", "details": "Human immunodeficiency virus 1, HEK-293T"}, "[9]": {"assay": "Inhibition of miR-96 hairpin RNA precursor (unknown origin)"}, "[10]": {"tested_on": "Human immunodeficiency virus 1", "assay": "Antiviral activity against HIV1 NL4-3 infected human TZM-bl cells assessed as reduction in viral replication", "assay_type": "functional, organism-based", "details": "Human immunodeficiency virus 1, NL4-3, TZM-bl"}, "[11]": {"tested_on": "Human immunodeficiency virus 1", "assay": "Binding affinity to HIV1 TAR RNA in HIV1 NL4-3 infected human TZM-bl cells assessed as inhibition of Tat-mediated activation relative to control", "details": "concentration not given here"}, "[12]": {"assay": "Binding affinity to HCV promoter RNA by NMR-based fragment screening assay", "parameters": "species or system Hepacivirus hominis"}, "[13]": {"tested_on": "Human immunodeficiency virus 1", "assay": "Antiviral activity against HIV1 NL4-3 infected in human MAGIC-5B cells assessed as inhibition of virus proliferation", "assay_type": "functional, organism-based", "details": "Human immunodeficiency virus 1, NL4-3"}, "[14]": {"tested_on": "Human immunodeficiency virus 1", "assay": "Antiviral activity against HIV1 infected in human MT2 cells assessed as inhibition of virus proliferation at 9 uM relative to control", "assay_type": "functional", "details": "Human immunodeficiency virus 1, MT2"}, "[15]": {"tested_on": "Human immunodeficiency virus 1", "assay": "Binding affinity to HIV1 TAR RNA assessed as increase in melting temperature"}}, "data": [{"smiles": "Nc1cccc(-c2nc3cc(-c4ccc5[nH]c(-c6cccc(N)c6)nc5c4)ccc3[nH]2)c1", "values": [{"measurement": "Kd", "setting": "[1]", "result": 0.07, "unit": "µM"}]}, {"smiles": "CCN(CC)CCOc1ccc(/C(=C(/Cl)c2ccccc2)c2ccccc2)cc1", "note": "[ENCLOMIPHENE]", "values": [{"measurement": "IC50", "setting": "[2]", "result": 3.7, "unit": "µM"}, {"measurement": "EC50", "setting": "[3]", "result": 4.3, "unit": "µM"}]}, {"smiles": "COc1ccc2nc3cc(Cl)ccc3c(NCCCCNc3nc(N)nc(N)n3)c2c1", "values": [{"measurement": "IC50", "setting": "[4]", "result": 15, "unit": "µM"}, {"measurement": "Kd", "setting": "[1]", "result": 0.0052, "unit": "µM"}]}, {"smiles": "Cc1c2cc[n+](CCN3CCCCC3)cc2c(C)c2c1[nH]c1ccc(O)cc12", "values": [{"measurement": "IC50", "setting": "[5]", "result": 12, "unit": "µM"}]}, {"smiles": "Cc1ccc2c(N)c(C(=O)Nc3cccc(C(F)(F)F)c3)sc2n1", "values": [{"measurement": "EC50", "setting": "[6]", "result": 28, "unit": "µM"}, {"measurement": "Kd", "setting": "[7]", "result": 2.4, "unit": "µM"}]}, {"smiles": "CN1CC/C(=N\\c2ccc(C(=O)Nc3ccc(N=c4ccn(C)cc4)cc3)cc2)c2cc([N+](=O)[O-])ccc21", "values": [{"measurement": "IC50", "setting": "[8]", "result": 4.5, "unit": "µM"}]}, {"smiles": "CCCN(CC(=O)N(CCC)CC(=O)N(CC(N)=O)Cc1cn(CCCNC(=O)CCCOc2c(C(C)(C)C)cc(-c3nc4cc(N5CCN(C)CC5)ccc4[nH]3)cc2C(C)(C)C)nn1)C(=O)CCCOc1cccc(-c2nc3ccc(-c4nc5ccc(N6CCN(C)CC6)cc5[nH]4)cc3[nH]2)c1", "values": [{"measurement": "IC50", "setting": "[9]", "result": 0.05, "unit": "µM"}]}, {"smiles": "CN(C)CCOc1cc2c(c3ccccc13)-c1ccccc1C2=O", "values": [{"measurement": "EC50", "setting": "[3]; read-out: EC50", "result": 0.83, "unit": "µM"}]}, {"smiles": "CCN[C@@H]1C[C@H](N)[C@@H](O[C@H]2OC(CN)=CC[C@H]2N)[C@H](O)[C@H]1O[C@H]1OC[C@](C)(O)[C@H](NC)[C@H]1O", "note": "[NETILMICIN]", "values": [{"measurement": "IC50", "setting": "[10]", "result": 23.1, "unit": "µM"}, {"measurement": "inhibition", "setting": "[11]", "result": 81, "unit": "%"}, {"measurement": "Kd", "setting": "[7]", "result": 1.35, "unit": "µM"}]}, {"smiles": "COc1cc2nc(N3CCNCC3)nc(N)c2cc1OC", "note": "[AMINODIMETHOXYQUINAZOLINYLPIPERAZINE]", "values": [{"measurement": "Kd", "setting": "[12]", "result": 50.5, "unit": "µM"}]}, {"smiles": "CC(=O)Nc1nc(-c2cccc(NC(=O)[C@H](N)Cc3c[nH]cn3)c2)cs1", "values": [{"measurement": "IC50", "setting": "[13]", "result": 0.41, "unit": "µM"}, {"measurement": "Kd", "setting": "[7]", "result": 17.5, "unit": "µM"}]}, {"smiles": "NC[C@H]1O[C@@H](O[C@H]2[C@H](O[C@@H]3O[C@H](Cn4cc(-c5ccc(-c6cn(C[C@H]7O[C@@H](O[C@@H]8[C@@H](O)[C@H](N)C[C@H](N)[C@H]8O[C@@H]8O[C@H](CN)[C@@H](O)[C@H](O)[C@H]8N)[C@H](O)[C@@H]7O[C@@H]7O[C@H](CN)[C@@H](O)[C@H](O)[C@H]7N)nn6)cc5)nn4)[C@@H](O[C@@H]4O[C@H](CN)[C@@H](O)[C@H](O)[C@H]4N)[C@H]3O)[C@@H](O)[C@H](N)C[C@@H]2N)[C@H](N)[C@@H](O)[C@@H]1O", "values": [{"measurement": "inhibition at 9 µM", "setting": "[14]", "result": 70, "unit": "%"}, {"measurement": "ΔTm", "setting": "[15]", "result": "< 10", "unit": "°C"}]}]}
